Test results reported in PubChem BioAssay AID248 (DTP/NCI, 2004).
Where “and” joins values, the source holds several entries; their conditions need not be identical. Identical values can stand only once. Inconclusive results and toxic doses are left out. No stated cut-off is given here; in the data, active means T/C of 150% or more; inactive means T/C below 125%.

Test system: L1210 leukemia ip in BDF1 mice, survival T/C
Assay: NCI In Vivo Anticancer Drug Screen. Data for tumor model L1210 Leukemia (intraperitoneal) in B6D2F1 (BDF1) mice
Conditions: endpoint: mean survival time, higher = longer survival
Method: The antitumor activity of compounds was measured in mice bearing transplantable tumors. Survival or tumor size were measured and the results are expressed as the measurement made in the treated group (T) divided by the measurement made in the vehicle treated control group (C). The tumor model used in this assay is L1210 Leukemia (intraperitoneal) in B6D2F1 (BDF1) mice

[1] = dose: 100.0 mg/kg/injection, schedule: Q04DX003 (ip), vehicle: Klucel (hydroxypropylcellulose) (HPC)
[2] = dose: 200.0 mg/kg/injection, schedule: Q04DX003 (ip), vehicle: Klucel (hydroxypropylcellulose) (HPC)
[3] = dose: 400.0 mg/kg/injection, schedule: Q04DX003 (ip), vehicle: Klucel (hydroxypropylcellulose) (HPC)
[4] = dose: 100.0 mg/kg/injection, schedule: Q04DX003 (ip), vehicle: saline with Tween-80
[5] = dose: 200.0 mg/kg/injection, schedule: Q04DX003 (ip), vehicle: saline with Tween-80
[6] = dose: 400.0 mg/kg/injection, schedule: Q04DX003 (ip), vehicle: saline with Tween-80
[7] = dose: 100.0 mg/kg/injection, schedule: Q04DX002 (ip), vehicle: saline with Tween-80
[8] = dose: 200.0 mg/kg/injection, schedule: Q04DX002 (ip), vehicle: saline with Tween-80
[9] = dose: 100.0 mg/kg/injection, schedule: Q01DX009 (ip), vehicle: saline with Tween-80
[10] = dose: 200.0 mg/kg/injection, schedule: Q01DX009 (ip), vehicle: saline with Tween-80
[11] = dose: 100.0 mg/kg/injection, schedule: Q01DX001 (ip), vehicle: saline
[12] = dose: 200.0 mg/kg/injection, schedule: Q01DX001 (ip), vehicle: saline
[13] = dose: 100.0 mg/kg/injection, schedule: Q01DX009 (ip), vehicle: Klucel (hydroxypropylcellulose) (HPC)
[14] = dose: 200.0 mg/kg/injection, schedule: Q01DX009 (ip), vehicle: Klucel (hydroxypropylcellulose) (HPC)
[15] = dose: 400.0 mg/kg/injection, schedule: Q01DX009 (ip), vehicle: Klucel (hydroxypropylcellulose) (HPC)

Measured: T/C

c1ccc(C2NC2(c2ccccc2)C2(c3ccccc3)SCCCS2)cc1 (stereo not drawn)
inactive: [1] 111 % of control | [2] 103 % of control | [3] 105 % of control

Cc1nc2nc[nH]c(=O)c2nc1C
inactive: dose: 16.0 mg/kg/injection, schedule: Q01DX Z (ip), vehicle: methylcellulose (MC) 92 % of control | dose: 31.0 mg/kg/injection, schedule: Q01DX Z (ip), vehicle: methylcellulose (MC) 89 % of control | dose: 62.0 mg/kg/injection, schedule: Q01DX Z (ip), vehicle: methylcellulose (MC) 103 % of control | dose: 125.0 mg/kg/injection, schedule: Q01DX Z (ip), vehicle: methylcellulose (MC) 93 % of control and 97 % of control | dose: 250.0 mg/kg/injection, schedule: Q01DX Z (ip), vehicle: methylcellulose (MC) 107 % of control

O=C(O)C1C2CC3OC(=O)C1C3C2O (stereo not drawn)
inactive: dose: 100.0 mg/kg/injection, schedule: Q01DX009 (ip), vehicle: saline 103 % of control | [4] 96 % of control | dose: 200.0 mg/kg/injection, schedule: Q01DX009 (ip), vehicle: saline 94 % of control | [5] 86 % of control | dose: 400.0 mg/kg/injection, schedule: Q01DX009 (ip), vehicle: saline 100 % of control | [6] 86 % of control

CC1=C(Cl)C(=O)C(Cl)=C(C)C1=O
inactive: dose: 5.5 mg/kg/injection, schedule: Q01DX Z (ip), vehicle: methylcellulose (MC) 93 % of control | dose: 8.3 mg/kg/injection, schedule: Q01DX Z (ip), vehicle: methylcellulose (MC) 107 % of control | dose: 12.5 mg/kg/injection, schedule: Q01DX Z (ip), vehicle: methylcellulose (MC) 102 % of control

CCOC(=O)C1=C(OCOC)CCC(C(C)(C)C)C1 (stereo not drawn)
inactive: dose: 100.0 mg/kg/injection, schedule: Q01DX001 (ip), vehicle: Klucel (hydroxypropylcellulose) (HPC) 92 % of control | dose: 200.0 mg/kg/injection, schedule: Q01DX001 (ip), vehicle: Klucel (hydroxypropylcellulose) (HPC) 98 % of control

Cc1cccc(C)c1Nc1n[nH]c(=S)s1
inactive: [7] 102 % of control | [8] 105 % of control | dose: 400.0 mg/kg/injection, schedule: Q04DX002 (ip), vehicle: saline with Tween-80 105 % of control

O=C(c1ccccc1)c1ccc(Oc2ccc(C(=O)c3ccccc3)cc2)cc1
inactive: dose: 75.0 mg/kg/injection, schedule: Q04DX003 (ip), vehicle: Klucel (hydroxypropylcellulose) (HPC) 94 % of control | [1] 101 % of control | dose: 150.0 mg/kg/injection, schedule: Q04DX003 (ip), vehicle: Klucel (hydroxypropylcellulose) (HPC) 96 % of control | [2] 96 % of control | dose: 300.0 mg/kg/injection, schedule: Q04DX003 (ip), vehicle: Klucel (hydroxypropylcellulose) (HPC) 107 % of control | [3] 95 % of control

CC(=O)Nc1nc(SCc2ccccc2)c2c(no[n+]2[O-])n1
inactive: [7] 97 % of control | [8] 116 % of control

COc1cc2c3c(c1)-c1c(ccc(OC)c1O)CC3N(C)CC2 (stereo not drawn)
inactive: dose: 25.0 mg/kg/injection, schedule: Q04DX003 (ip), vehicle: DMSO 93 % of control | dose: 50.0 mg/kg/injection, schedule: Q04DX003 (ip), vehicle: DMSO 91 % of control | dose: 100.0 mg/kg/injection, schedule: Q04DX003 (ip), vehicle: DMSO 91 % of control

O=C(N/N=C\c1cc(Cl)ccc1[N+](=O)[O-])c1ccco1
inactive: dose: 200.0 mg/kg/injection, schedule: Q01DX001 (ip), vehicle: other 93 % of control

O=[N+]([O-])c1ccc(-c2ccc(Br)cc2)cc1
inactive: [9] 100 % of control | [4] 101 % of control | [10] 86 % of control | [5] 94 % of control | [6] 103 % of control

CC(=O)c1c(C)cc(C)nc1C
inactive: [11] 96 % of control | [12] 102 % of control

CC(O)COc1ccc(OCc2ccccc2)cc1 (stereo not drawn)
inactive: [13] 98 % of control | [1] 106 % of control | [14] 95 % of control | [2] 100 % of control | [15] 97 % of control | [3] 92 % of control

Nc1nc2c(c(-c3ccc(Cl)cc3)n1)CN(CCC(=O)O)C2=O
inactive: [11] 100 % of control | dose: 100.0 mg/kg/injection, schedule: Q04DX003 (ip), vehicle: saline 98 % of control | [12] 105 % of control | dose: 200.0 mg/kg/injection, schedule: Q04DX003 (ip), vehicle: saline 98 % of control | dose: 400.0 mg/kg/injection, schedule: Q01DX001 (ip), vehicle: saline 102 % of control | dose: 400.0 mg/kg/injection, schedule: Q04DX003 (ip), vehicle: saline 98 % of control

CC(=O)OCC1=C(COC(C)=O)C2OC1C1OC(=O)OC21 (stereo not drawn)
inactive: dose: 75.0 mg/kg/injection, schedule: Q01DX009 (ip), vehicle: Klucel (hydroxypropylcellulose) (HPC) 97 % of control | [13] 105 % of control | dose: 150.0 mg/kg/injection, schedule: Q01DX009 (ip), vehicle: Klucel (hydroxypropylcellulose) (HPC) 92 % of control | [14] 97 % of control | dose: 300.0 mg/kg/injection, schedule: Q01DX009 (ip), vehicle: Klucel (hydroxypropylcellulose) (HPC) 104 % of control | [15] 101 % of control

COc1ccc(C(C)S(=O)(=O)c2ccc(C)cc2)cc1OC (stereo not drawn)
inactive: dose: 100.0 mg/kg/injection, schedule: Q01DX001 (ip), vehicle: carboxymethylcellulose (CMC) 97 % of control | dose: 200.0 mg/kg/injection, schedule: Q01DX001 (ip), vehicle: carboxymethylcellulose (CMC) 97 % of control | dose: 400.0 mg/kg/injection, schedule: Q01DX001 (ip), vehicle: carboxymethylcellulose (CMC) 94 % of control

CC(COC(=O)c1ccccc1)(COC(=O)c1ccccc1)COC(=O)c1ccccc1
inactive: [13] 96 % of control | [1] 113 % of control | [14] 104 % of control | [2] 99 % of control | [15] 107 % of control | [3] 96 % of control

BrCCC[P+](c1ccccc1)(c1ccccc1)c1ccccc1
inactive: dose: 12.5 mg/kg/injection, schedule: Q01DX009 (ip), vehicle: saline with Tween-80 103 % of control | dose: 25.0 mg/kg/injection, schedule: Q04DX003 (ip), vehicle: saline with Tween-80 97 % of control | dose: 50.0 mg/kg/injection, schedule: Q01DX001 (ip), vehicle: saline 104 % of control | dose: 50.0 mg/kg/injection, schedule: Q04DX003 (ip), vehicle: Klucel (hydroxypropylcellulose) (HPC) 107 % of control | dose: 50.0 mg/kg/injection, schedule: Q04DX003 (ip), vehicle: saline with Tween-80 97 % of control | [11] 116 % of control

CCCCCCCCCCCCCCCC(=O)N(CCC#N)c1ccc(N(CCC#N)C(=O)CCCCCCCCCCCCCCC)cc1
inactive: dose: 100.0 mg/kg/injection, schedule: Q01DX001 (ip), vehicle: saline with Tween-80 93 % of control | [9] 86 % of control | [4] 104 % of control | dose: 200.0 mg/kg/injection, schedule: Q01DX001 (ip), vehicle: saline with Tween-80 98 % of control | [10] 88 % of control | [5] 94 % of control | dose: 400.0 mg/kg/injection, schedule: Q01DX001 (ip), vehicle: saline with Tween-80 94 % of control | dose: 400.0 mg/kg/injection, schedule: Q01DX009 (ip), vehicle: saline with Tween-80 86 % of control | [6] 93 % of control
